Test results from ChEMBL document CHEMBL2094260, “Malaria Box Tuberculosis Screening Data”.

Legend:
[1] = system: Mycobacterium tuberculosis; experiment: MMV: Screen against Mtb, single point, non replicating, at 25uM; assay type: functional
[2] = system: Mycobacterium tuberculosis; experiment: MMV: Screen against Mtb, single point, replicating, at 25uM; assay type: functional

Compound | inhibition at 25 µM [1] | inhibition at 25 µM [2]
COc1ccc(-c2cc3c(nn2)-c2ccccc2C3=O)cc1 | 26.7% | 39%
c1ccc(/C2=N/c3ccccc3/N=C(/c3ccccc3)c3ccccc32)cc1 | 23.5% | 22.3%
CCOC(=O)C1=C(C)N=c2sc(=Cc3ccccc3O)c(=O)n2C1c1ccc(OC)c2ccccc12 (stereo not given) | 24.4% | 4%
CCOC(=O)C1=C(C)N=c2sc(=Cc3cc(Cl)ccc3O)c(=O)n2C1c1ccc(OC)cc1 (stereo not given) | 13.4% | -0.235%
COc1ccc(CN2CCCC(C(=O)c3ccc(C(F)(F)F)cc3)C2)c(O)c1 (stereo not given) | 1.85% | 35.3%
O=C(NC1CCCCC1)C(c1cccs1)N(CCc1ccccc1)C(=O)c1ccco1 (stereo not given) | 2.2% | 22.2%
c1ccc2c(NCCCCCCNc3c4c(nc5ccccc35)CCCC4)c3c(nc2c1)CCCC3 | 17.8% | 32.7%
O=C(NCCCN1CCC(N2CCCCC2)CC1)C1=Cc2cc(Br)ccc2OC1 | 6.82% | 14.7%
Cc1ccnc(NC(c2cccc(OCc3ccccc3)c2)c2ccc3cccnc3c2O)c1 (stereo not given) | 22.3% | 6.19%
N=c1c2ccccc2nnn1-c1cccc(C(F)(F)F)c1 | -4.19% | 7.29%
COc1cc(-c2nc(-c3ccc(Sc4ccccc4)cc3)c(-c3ccccc3)[nH]2)cc(OC)c1O | 13.6% | 16.5%
O=c1cc(NC2CCN(CCCc3ccccc3)CC2)c2cc(Cl)ccc2o1 | 14.3% | 24.2%
Cc1ccc(OCCCCCCNCCO)c(C)c1 | 13% | 17.5%
OC(Cn1nnc2ccccc21)Cn1c2ccc(Br)cc2c2cc(Br)ccc21 (stereo not given) | -5.78% | 4.62%
CCOc1ccc(-n2cc(-c3ccccc3)c3c(SCc4cc(C)ccc4C)ncnc32)cc1 | 21.9% | -0.392%
Cc1ccc(C)c(Cn2c(N3CCC(C(=O)NCc4cccs4)CC3)nc3ccccc32)c1 | 10.4% | 22%
Cc1ccccc1OCCSc1nc2ccc(NC(=O)c3cccs3)cc2s1 | 16.4% | 51.3%
CC1CCN(Cc2c(O)ccc3cc(-c4nc5ccccc5s4)c(=O)oc23)CC1 | 12% | 8.23%
COc1ccc(C2C(C(=O)Nc3cccc(OC)c3)c3ccccc3C(=O)N2C2CCCCC2)cc1 (stereo not given) | 29% | 19.5%
c1ccc2c(NCCc3c[nH]c4ccccc34)c3ccccc3nc2c1 | 17.8% | 47.1%
O=C(Nc1ccc(C23CC4CC(CC(c5ccccc5)(C4)C2)C3)cc1)c1cccs1 | -0.283% | 9.48%
CCN(CC)CCCNc1ccnc2cc3ccccc3cc12 | 14.6% | 8.7%
Cc1ccccc1OCCSc1nc2ccc(NC(=O)c3ccccc3)cc2s1 | 9.66% | 22%
CCOC(=O)c1cnc2c(C)cccc2c1Nc1ccc(C(C)=O)cc1 | 8.24% | 0.392%
O=C(Nc1ccc(-c2nc3cc4ccccc4cc3[nH]2)cc1)c1cccc(Br)c1 | 37% | 8.07%
Cc1ccc(-c2nc3ccccc3o2)cc1NCc1cc(Cc2ccccc2)ccc1O | 10.4% | 1.18%
Cc1ccc(C2CC(C(F)(F)F)n3nc(C(=O)N4CCN(C(c5ccccc5)c5ccccc5)CC4)cc3N2)cc1 (stereo not given) | 10.5% | 14.3%
Cc1ccc2nc(C)cc(Nc3cccc(C(F)(F)F)c3)c2c1 | 10.4% | 39%

Compound | inhibition at 25 µM [1] | inhibition at 25 µM [2]
COc1cccc(C(=O)NC(c2ccc(C)cc2)c2cc(Cl)c3cccnc3c2O)c1 (stereo not given) | 14.3% | 10.4%
COc1ccc(C(O)(CCC(C)C)C(CN2CCOCC2)c2ccc(Cl)cc2)cc1 (stereo not given) | 10% | 4.78%
CCOC(=O)C1(Cc2ccccc2)CCN(Cc2cccc(OC)c2O)CC1 | 8.77% | 9.17%
CCCOCc1cc(CN2CCN(c3cccc(Cl)c3)CC2)c(O)c2ncccc12 | 1.85% | 5.25%
O=C(Cc1ccccc1)NC(c1ccc(Cl)cc1)c1c(O)ccc2ccccc12 (stereo not given) | -0.46% | 12%
CCOc1ccc2c(c1)CN(Cc1ccc(Cl)cc1)CO2 | 20.5% | 16.1%
CC(C)(C)c1ccc2c(c1)CN(Cc1ccc(Cl)cc1)CO2 | 41.2% | 48.4%
CCCCC(O)(c1ccc(Cl)cc1)C(CN1CCOCC1)c1ccc(Cl)cc1 (stereo not given) | 15.2% | 17.3%
COc1ccc(OC)c(C2C3=C(CC(C)(C)CC3=O)N(c3ccc(Cl)c(Cl)c3)C3=C2C(=O)CC(C)(C)C3)c1 | 7.7% | 5.56%
COc1ccc(C(=O)NC(c2ccccc2Cl)c2cc(Cl)c3cccnc3c2O)cc1 (stereo not given) | 5.04% | 10.6%
Cc1cccc(N2C(=O)C3C(C2=O)C2(c4ccccc4)C(=O)C3(c3ccccc3)C(c3ccc4c(c3)OCO4)=C2c2ccc3c(c2)OCO3)c1 (stereo not given) | 16.4% | 23.1%
Cc1cc(=O)oc2c1ccc1oc(C(=O)c3ccccc3)c(C)c12 | 21.4% | 13.4%
COc1ccc2c(c1OC)C(=O)N1c3ccccc3N=C(c3ccc(C)cc3)CC21 (stereo not given) | 15.2% | 4.94%
CCCCCCc1cc(O)c2c3c(c(=O)oc2c1)CCC(C)C3 (stereo not given) | 11.4% | 12.8%
CCCc1c(C)nc2ccc(Br)cc2c1O | 12.5% | 13.7%
COc1ccc(CCNC(=O)c2cc(S(=O)(=O)N3CC(C)CC(C)C3)ccc2Sc2ccc(F)cc2)cc1OC (stereo not given) | 22.6% | -6.51%
Cc1ccc(F)cc1NC(=O)c1cc(Cl)ccc1Nc1ccccc1 | 28.5% | 6.66%
CCOc1ccc(Nc2c3ccccc3nc3ccccc23)cc1 | 15.9% | 51.8%
CC1=C(CC(=O)c2cccc([N+](=O)[O-])c2)C(=O)c2ccccc2C1=O | 20.1% | 40.5%
COc1ccc(C)c2sc(N(Cc3cccnc3)C(=O)c3ccc(C#N)cc3)nc12 | 23.9% | 9.48%
CCCCCCc1cc2cc(-c3nc4ccccc4[nH]3)c(=Nc3ccccc3C)oc2cc1O | 28.5% | 4.31%
CCCCCCC(O)(c1ccc(F)cc1)C(CN1CCOCC1)c1ccccc1 (stereo not given) | 19.8% | 3.84%
COc1cc(OC)cc(N2C(=O)N(Cc3ccc(C(C)(C)C)cc3)c3ccccc3S2(=O)=O)c1 | 13.6% | 2.59%
CCOc1c(Br)cc(C2C(C(=O)OC)=CN(C)C=C2C(=O)OC)cc1OC | 14.1% | 7.76%
COc1ccccc1N1C(=N)SC(=Cc2ccc(OCc3ccccc3F)cc2)C1=O | 21.4% | 8.86%
Cc1ccc(S(=O)(=O)c2c(COC(=O)c3cccc(C)c3)c(-c3ccccc3)nn2C)cc1 | 8.24% | 9.01%
CCOC(=O)c1c[nH]c2c(CC)cccc2c1=O | 11.1% | 4.62%
